Common to all, as to type: biochemical
The target of one assay is T1, papain (Carica papaya, UniProt P00784).
T1 construct: purchased Sigma-Aldrich Japan
In words: Inhibitory activity against papain activity (Bz-Arg-MCA fluorescent substrate). To be noted: 10 μg/ml papain, 15 min preincubation, 37° C., pH 7.4, 10 μM Bz-Arg-MCA; from FIG. 5. The method, then: Thereafter, 10 μM Bz-Arg-MCA was added to the reaction solution, and changes in the fluorescence intensity caused by cleavage of Bz-Arg-MCA were observed over time using a fluorometer.
Thereafter, 10 μM Bz-Arg-MCA was added to the reaction solution, and changes in the fluorescence intensity caused by cleavage of Bz-Arg-MCA were measured using a fluorometer, to investigate the inhibitory activity.

The target of assay [1] is T2, M^pro of SARS-COV2 (Severe acute respiratory syndrome coronavirus 2, UniProt P0DTD1). In words: Inhibitory activity against M^pro of SARS-COV2 at 1 μM test compound, Example 5. Conditions: 2 μg/ml M^pro, measured 1 minute after addition, FIG. 10. The method, then:
The M^pro was introduced into a plasmid having GST and a histidine tag (FIG. 6), and the resulting plasmid was used for transformation of the E. coli BL21 (DE3) strain. The E. coli BL21 (DE3) strain was cultured at 37° C. to allow expression of M^pro protein. The cell bodies were recovered, and M^pro protein was purified using a binding agent for the histidine tag. The GST and the histidine tag were removed by autodigestion of M^pro and human rhinovirus 3C protease (HRV), and undigested M^pro and HRV were removed using a binding agent for the histidine tag, to obtain a purified sample of M^pro protein. […]
After dissolving 2 μg/ml M^pro and 1 μM test compound in 50 mM Tris-HCl (pH 7.4) kept at 37° C., preincubation was carried out for 5 minutes. Thereafter, 10 μM Ac-Abu-Tle-Leu-Gln-MCA was added to the reaction solution, and the fluorescence intensity resulting from cleavage of Ac-Abu-Tle-Leu-Gln-MCA was measured using a fluorometer, to measure the inhibitory activity (FIG. 10). […] When the fluorescence intensity observed in the case without addition of a test compound was taken as 100, the fluorescence intensity measured 1 minute after the addition of the test compound was about 20% in the case of selenoneine.

Assay [2] concerns the target T2, M^pro of SARS-COV2. In words: Inhibitory activity against M^pro of SARS-COV2 (Ac-Abu-Tle-Leu-Gln-MCA fluorescent substrate), Example 4. To be noted: 2 μg/ml M^pro, 5 min preincubation.
Procedure: Thereafter, 10 μM Ac-Abu-Tle-Leu-Gln-MCA was added to the reaction solution, and changes in the fluorescence intensity caused by cleavage of Ac-Abu-Tle-Leu-Gln-MCA were measured using a fluorometer, to investigate the inhibitory activity (FIG. 8). In order to provide a control, changes in the fluorescence intensity were measured under the same conditions except that no inhibitory compound was added.
Ac-Abu-Tle-Leu-Gln-MCA is degraded by M^pro, to produce a fluorescent substance as follows. The production of the fluorescent substance is suppressed by the action of an M^pro-inhibiting compound.
Thereafter, 10 μM Ac-Abu-Tle-Leu-Gln-MCA was added to the reaction solution, and changes in the fluorescence intensity caused by cleavage of Ac-Abu-Tle-Leu-Gln-MCA were measured using a fluorometer to measure the fluorescence intensity, to determine an inhibition curve (FIG. 8).

Data on two molecules can be found in patent US20250352517A1, “THERAPEUTIC OR PROPHYLACTIC AGENT FOR COVID19 WHICH COMPRISES SELENONEINE” (National University Corporation Chiba University, priority 2021, published 2025).

T1 sequence (P00784 134-345): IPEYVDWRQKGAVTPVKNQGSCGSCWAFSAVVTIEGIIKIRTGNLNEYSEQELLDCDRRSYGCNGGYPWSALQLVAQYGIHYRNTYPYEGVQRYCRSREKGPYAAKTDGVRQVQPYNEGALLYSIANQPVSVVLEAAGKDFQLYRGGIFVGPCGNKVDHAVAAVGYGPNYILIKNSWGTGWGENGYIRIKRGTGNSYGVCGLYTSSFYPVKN

By IC50 is commonly meant the midpoint of a concentration-inhibition curve. In the case of `O=c1c2ccccc2[se]n1-c1ccccc1` [Ebselen, ebselen, reference compound], the IC50 on papain stood at 5 µM.

As to `C[N+](C)(C)C(Cc1cnc([SeH])[nH]1)C(=O)O` [Selenoneine, 2-selenyl-Nα,Nα,Nα-trimethyl-L-histidine], the “fluorescence intensity (case without test compound taken as 100)” value on M^pro of SARS-COV2 [1] is listed as “about 20%”. The half-maximal inhibitory concentration (IC50) at papain was 0.25 µM; on M^pro of SARS-COV2 [2] (37° C., pH 7.4, 10 μM Ac-Abu-Tle-Leu-Gln-MCA, read-out: IC50 value calculated from the regression curve), 0.54 µM. In addition, the “changes in the fluorescence intensity compared with control without inhibitory compound” value on M^pro of SARS-COV2 [2] (5 μM compound, FIG. 8) is “lower than that in the case where no inhibitory compound was added”.
